Results from PMC11040934, “PI3Kγδ inhibition suppresses key disease features in a rat model of asthma” (Respiratory Research, 2024).

Key:
[1] = Human plasma protein binding and unbound fraction in assay media; type: in vitro ADME
Procedure: (§1) PI3K δ assay: single cell suspension was obtained from the spleen of male Sprague Dawley rat; cells were cultured in RPMI containing heat-inactivated 10% FBS, pre-treated (1 hr., 37 °C, 5% CO2) with vehicle DMSO or PI3K inhibitors, followed by stimulation with AffiniPure F(ab’)2 Fragment Goat Anti-Rat IgM, μ chain specific, Jackson Immunoresearch (112–006-075) at 5 μg/mL (EC80 determined in house; 20–22 hrs). Then, cells were washed with FACS buffer (2% FBS, […]) and stained (15 mins, 4 °C) with Fc block (1:100, 550,273, BD bioscience), LIVE/DEAD Fixable Aqua Dead Cell Stain Kit (L34957, Invitrogen, 1:300), CD45R (B220)-PeCy7 (HIS24) (25–0460-82, eBioscience, 1:100), CD3-AF647 (IF4) (201,408, Biolegend, 1:100), CD86-FITC (24F) (200,305, Biolegend, 1:50). Cells were acquired on the Flow Cytometer (BD LSRFortessa™) and analysed using FlowJo 9.9 software (TreeStar). FACS gating strategy: lymphocytes (FSC-A vs SSC-A), doublets exclusion (FSC-W vs FSC-H), live cells (Aqua-530-), B cell identification CD3- B220 + % of positive B cells for CD86. IC50 values were determined in Graph Pad through a nonlinear fit on log transform data: log inhibitor vs response, variable slope, 4 parameters. Fraction unbound in in vitro assay is calculated using the following equation: fu^′=DF·fup/1+DF-1·fup where fu’ is the fraction unbound in assay media; fup is the experimentally determined fraction unbound in undiluted human plasma; DF is the dilution factor (fold difference between protein concentration in human plasma and assay media, using an albumin concentration of 600 μM (40 g/L) for undiluted plasma) Table 2.

[2] = Rat plasma protein binding, blood to plasma ratio, unbound fraction in whole blood; type: in vitro ADME; conditions: for Rat fub: fraction unbound in 100% whole blood, fup/BP; for fraction unbound: rat
Procedure: (§2) Next, cells were stained with Fc block (550,273, BD bioscience, 1:100; 20 mins, RT), CD45R-B220-PeCy7 (HIS24) (25–0460-82, eBioscience, 1:100), CD43-PE (W3/13) (202,812, Biolegend, 1:100), HIS48-FITC (11–0570-82, eBioscience, 1:100), CD11b-APC (562,102, BD Bioscience, 1:100). Cells were lysed and fixed with BD FACS lysing solution (349,202, BD Biosciences; 45 mins, RT) before FACS acquisition (BD LSRFortessa™). Data were analysed using FlowJo 9.9 software (TreeStar). FACS gating strategy: lymphocytes (FSC-A vs SSC-A), doublets exclusion (FSC-W vs FSC-H), neutrophil identification B220-, HIS48hi, CD43hi, SSC-Ahi, geom. MFI for CD11b on neutrophils. IC50 values were determined in Graph Pad through a nonlinear fit on log transform data: log inhibitor vs response, variable slope, 4 parameters. Fraction unbound in diluted whole blood is calculated using the following equation: fu^′=DF·fub/1+DF-1·fub where fu’ is the fraction unbound in diluted whole blood; fub is the fraction unbound in undiluted whole blood; DF is the dilution factor. Fraction unbound in 100% whole blood (fub) is calculated as fup/BP, where fup is the experimentally determined fraction unbound in undiluted plasma and BP is the experimentally determined blood to plasma partition ratio of drug Table 1.

[3] = target: T1, rat PI3Kδ (Rattus norvegicus, UniProt A0A8I5Y949); assay: PI3K δ assay: anti-IgM-stimulated CD86 expression on rat splenic B cells (FACS); type: cell-based; conditions: reference inhibitors, at the relevant concentration
T1 sequence (A0A8I5Y949 1-1047): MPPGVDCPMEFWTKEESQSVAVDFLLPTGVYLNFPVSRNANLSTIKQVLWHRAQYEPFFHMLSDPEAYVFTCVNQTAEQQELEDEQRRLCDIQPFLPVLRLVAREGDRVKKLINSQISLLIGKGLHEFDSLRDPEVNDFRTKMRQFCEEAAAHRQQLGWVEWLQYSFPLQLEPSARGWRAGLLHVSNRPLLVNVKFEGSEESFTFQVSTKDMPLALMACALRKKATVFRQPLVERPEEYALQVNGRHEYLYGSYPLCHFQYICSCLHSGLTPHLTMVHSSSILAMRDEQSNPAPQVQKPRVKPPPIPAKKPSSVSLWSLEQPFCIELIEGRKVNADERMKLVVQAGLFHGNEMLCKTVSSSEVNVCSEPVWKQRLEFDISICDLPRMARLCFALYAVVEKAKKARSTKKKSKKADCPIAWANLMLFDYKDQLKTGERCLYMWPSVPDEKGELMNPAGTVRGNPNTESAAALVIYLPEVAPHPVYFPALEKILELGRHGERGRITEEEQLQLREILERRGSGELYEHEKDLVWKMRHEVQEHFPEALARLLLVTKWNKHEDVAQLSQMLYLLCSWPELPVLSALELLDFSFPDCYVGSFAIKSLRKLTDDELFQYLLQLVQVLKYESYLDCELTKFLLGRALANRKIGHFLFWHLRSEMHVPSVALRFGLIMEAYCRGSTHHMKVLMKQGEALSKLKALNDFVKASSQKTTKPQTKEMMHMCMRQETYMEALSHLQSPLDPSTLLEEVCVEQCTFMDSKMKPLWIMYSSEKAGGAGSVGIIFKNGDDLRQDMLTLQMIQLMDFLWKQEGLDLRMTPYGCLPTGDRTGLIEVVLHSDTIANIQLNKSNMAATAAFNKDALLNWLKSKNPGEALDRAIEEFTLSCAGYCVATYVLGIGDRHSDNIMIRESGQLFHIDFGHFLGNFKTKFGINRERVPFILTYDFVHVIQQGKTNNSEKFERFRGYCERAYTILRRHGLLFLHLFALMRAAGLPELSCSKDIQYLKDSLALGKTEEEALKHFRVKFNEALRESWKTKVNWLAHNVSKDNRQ
Procedure: as §1

[4] = target: rat PI3Kγ (Rattus norvegicus, UniProt D3ZFJ0); assay: PI3K γ assay: CXCL1/CINC-1-stimulated CD11b expression on rat whole blood neutrophils (FACS); type: cell-based; conditions: reference inhibitors, at the relevant concentration
Sequence of rat PI3Kγ (D3ZFJ0 1-1102): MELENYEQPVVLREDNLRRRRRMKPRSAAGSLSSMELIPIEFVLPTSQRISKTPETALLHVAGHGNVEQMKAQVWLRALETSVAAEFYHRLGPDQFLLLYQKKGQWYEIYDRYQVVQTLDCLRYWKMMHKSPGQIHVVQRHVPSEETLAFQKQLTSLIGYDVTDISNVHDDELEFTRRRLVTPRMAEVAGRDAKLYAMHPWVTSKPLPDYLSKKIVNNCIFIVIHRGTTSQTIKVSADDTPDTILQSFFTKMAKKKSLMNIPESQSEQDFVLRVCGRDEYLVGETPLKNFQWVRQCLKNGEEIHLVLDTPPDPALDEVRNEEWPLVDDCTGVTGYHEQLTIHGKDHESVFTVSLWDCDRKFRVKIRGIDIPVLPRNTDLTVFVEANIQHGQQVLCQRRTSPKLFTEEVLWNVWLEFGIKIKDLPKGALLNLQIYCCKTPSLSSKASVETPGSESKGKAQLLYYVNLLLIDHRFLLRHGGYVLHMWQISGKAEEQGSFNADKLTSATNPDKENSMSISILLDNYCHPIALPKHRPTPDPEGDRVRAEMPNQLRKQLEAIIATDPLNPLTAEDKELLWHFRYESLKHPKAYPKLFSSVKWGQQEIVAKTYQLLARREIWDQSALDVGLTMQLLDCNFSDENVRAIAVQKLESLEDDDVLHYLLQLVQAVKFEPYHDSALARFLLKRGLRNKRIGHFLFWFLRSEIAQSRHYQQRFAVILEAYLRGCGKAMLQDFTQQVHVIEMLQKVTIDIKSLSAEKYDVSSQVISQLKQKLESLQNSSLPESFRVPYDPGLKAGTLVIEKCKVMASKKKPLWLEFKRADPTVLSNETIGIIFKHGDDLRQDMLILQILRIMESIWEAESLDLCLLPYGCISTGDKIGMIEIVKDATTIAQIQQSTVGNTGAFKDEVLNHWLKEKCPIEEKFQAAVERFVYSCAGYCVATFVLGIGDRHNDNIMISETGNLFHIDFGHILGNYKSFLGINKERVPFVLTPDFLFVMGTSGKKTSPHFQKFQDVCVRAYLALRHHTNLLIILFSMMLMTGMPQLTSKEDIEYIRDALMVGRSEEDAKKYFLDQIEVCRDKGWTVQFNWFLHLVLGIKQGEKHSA
Procedure: as §2, with “PI3K γ assay: whole blood from male Sprague Dawley rat was collected in heparin coated tubes and pre-treated (1 hr., 37 °C, 5% CO2) with vehicle DMSO or PI3K inhibitors followed by stimulation with Rat CXCL1/CINC-1 (515-CN-050, R&D) at 500 ng/mL (EC80 determined in house; 1 hr., RT). Next,” for “Next,”

[5] = tested on: asthma patients; conditions: cited from earlier work
[6] = tested on: Brown Norway rats, OVA sensitised and challenged; assay: Rat model of allergic asthma: BAL cellular inflammation; type: in vivo, Brown Norway rat; conditions: BAL 24 hrs after OVA challenge; i.t. dosing
Procedure: (§3) Male, adult, Brown Norway rats were obtained from Charles River Germany at a body weight range of 250-300 g. Animals were housed in temperature controlled individually ventilated cages in groups of 4 with food and water provided ad libitum. Animals underwent acclimatisation for at least 1 week prior to experimentation. Experiments were performed in accordance with the UK Home Office guidelines for animal welfare based on the Animals (Scientific Procedures) Act of 1986 and the ARRIVE guidelines (Fig. E2).
(§4) Initially a time course study was performed, followed by a characterisation study with compound & clinical comparator. For both studies, rats were sensitised on day 0, 14 and 21 by an intraperitoneal (i.p.) injection of 4 mL/kg (1 mL/rat) of ovalbumin (OVA;100 μg/rat) in Imject™ Alum (20 mg/rat aluminium hydroxide and 20 mg/rat magnesium hydroxide) or sham sensitised (Saline [Sal] in Imject™ Alum). On day 28 rats were challenged with 1% (w/v) aerosolised OVA in isotonic saline, or sham challenged with isotonic saline (30 mins).
Following blood collection, rats underwent tracheostomy and were cannulated. Rats were lavaged and bronchoalveolar lavage (BAL) fluid was collected (2 × 3 mL RPMI, 30 secs, 70% vol. retained). Slides were prepared using 100 μL of neat BAL, centrifuged (700 rpm, 5 mins, RT, low acceleration; Cytospin 2, Shandon, Runcorn, UK). 800 μL of neat BAL was collected and centrifuged (800×g, 10 mins, 4 °C). Supernatant was collected and stored (− 80 °C), and cell pellet was resuspended (200 μL, RPMI), total leukocytes were attained using a Sysmex XP-300 automated cell counter (Sysmex Ltd., Milton Keynes, UK). Remaining BAL was centrifuged (800×g, 10 mins, 4 °C) and supernatant collected and stored (− 80 °C).
BAL cytospin slides were placed in an automated stainer (Hematek 2000, Ames. Co., USA) and stained with a Modified-Wright stain (Siemens, Germany). Differential cell counts using a light microscope were performed based on morphological criteria were performed to determine percentages of macrophages/monocytes, lymphocytes, neutrophils & eosinophils. Total numbers of each distinct cell type were determined based on total leukocyte numbers.

[7] = tested on: PI3K pathway (pAkt); assay: Rat model of allergic asthma: lung tissue pAkt (T308), target engagement; type: in vivo, Brown Norway rat; conditions: i.t. 1 hr before OVA challenge; AZD8154 0.02, 0.1, 0.3 mg/kg, budesonide 3 mg/kg; lung 2 hrs after challenge
Procedure: as §3
Initially a time course study was performed, followed by a characterisation study with compound & clinical comparator. […]
5 μL of supernatant (1:50 dilution) was taken for Bradford Assay which was run according to manufacturers’ instructions (BioRad, USA). […] Absorbance was measured using a spectrophotometer and total protein values interpolated to standard curve (595 nm; Spectromax, UK).
10 μg of protein from lung tissue extract were utilized in pAkt (T308); pSTAT3, pSTAT4 & STAT5a, b (Phospho-STAT Panel kit) MSD Assay plates (Meso Scale Delivery, USA) and run according to manufacturers’ instructions. Arbitrary electrochemiluminescence signals were read, the blank subtracted and values determined in each plate using a MSD S-Plex plate reader (Meso Scale Delivery, USA).

[8] = tested on: Brown Norway rats, OVA sensitised and challenged; assay: Rat model of allergic asthma: late asthmatic response (Penh, whole body plethysmography); type: in vivo, Brown Norway rat; conditions: 1-6 hrs after OVA challenge; i.t. dosing
Procedure: as §3
as §4, with “On day 28 rats were challenged with 1% (w/v) aerosolised OVA in isotonic saline, or sham challenged with isotonic saline (30 mins).” left out
In both studies, 30 mins post-challenge, rats were placed unrestrained in Perspex plethysmographs connected to bias flow pumps (DSI Europe Ltd), with food and water ad libitum. 55 mins post-challenge, a five mins baseline recording was taken and the average penh and area under the curve (AUC) was recorded at 10 mins intervals for a total duration of 5 hrs and was used for analysis (DSI Europe Ltd).

For `CC(C)N1CCN(Cc2cnc(-c3cc(-c4cccc5[nH]ccc45)cc4[nH]ncc34)o2)CC1` [GSK2269557], the fraction unbound ([1]; human plasma, fraction unbound, read-out: Human ppb (fu, %)) was 0.021, the fraction unbound ([1]; human, assay media (PI3K δ assay), fraction unbound in assay media (δ assay, RPMI 10% FBS), read-out: Fu’) was 0.177 and the “Rat B/P ratio” value ([2]; blood to plasma partition ratio) was 0.88. For the same compound, the Rat fub [2] was 0.050, the fraction unbound ([2]; diluted whole blood (PI3K γ assay), fraction unbound in diluted whole blood, DF 1.05 (γ assay), read-out: fu’) was 0.0524 and the fraction unbound ([2]; plasma, rat plasma, fraction unbound, read-out: Rat ppb (fu, %)) was 0.044. For the same compound, the fraction unbound ([2]; plasma, undiluted rat plasma, fraction, read-out: Rat plasma fu) was 0.044, the “effect in PI3Kδ assay (CD86 expression)” value [3] was “blocked their respective assay” and the “effect in PI3Kγ assay (CD11b expression)” value [4] was “had no impact on the other assay”.
In the case of `CC(=O)Nc1nc(C)c(-c2cc3c(c(S(C)(=O)=O)c2)C(=O)N([C@@H](C)C2CC2)C3)s1` [AZD3458], the Rat fub [2] was 0.200, the “effect in PI3Kδ assay (CD86 expression)” value [3] was “had no impact on the other assay” and the “effect in PI3Kγ assay (CD11b expression)” value [4] was “blocked their respective assay”.
In the case of `CC(C)N1CCN(Cc2cnc(-c3cc(-c4cccc5[nH]ccc45)cc4[nH]ncc34)o2)CC1` [Nemarisilib], the “asthma symptoms in clinical trials” value ([5]; inhaled) is given as “no improvement in asthma symptoms” and the “cough propensity in clinical trials” value ([5]; inhaled) is given as “increase in cough propensity”.
For `C[C@H](Nc1ncnc2nc[nH]c12)c1cc2cccc(Cl)c2c(=O)n1-c1ccccc1` [duvelisib], the “effect in clinical asthma trials” value ([5]; oral) is listed as “beneficial effects”.
With `CCCC1O[C@@H]2C[C@H]3[C@@H]4CCC5=CC(=O)C=C[C@]5(C)[C@H]4[C@@H](O)C[C@]3(C)[C@]2(C(=O)CO)O1` (some centres unmarked) [budesonide] the BAL eosinophils [6] was “reversing these key features to basal levels”, the BAL neutrophils [6] was “reversing these key features to basal levels” and the BAL total leukocytes [6] was “reversing these key features to basal levels”. For the same compound, the “lung tissue pAkt levels” value [7] was “dramatic inhibition” and the “LAR (Penh, AUC)” value [8] was “inhibiting the lung function change”.
